# Biological target: WT STING (Homo sapiens, UniProt Q86WV6, H232R)
# Assay: Differential scanning fluorimetry with WT STING
# Format: binding
# Set-up: truncated human WT STING or AQ STING (amino acid residues 140-343); 8xHis (N, cleaved yes); SUMO (N, cleaved yes); made in house; host or cells: E. coli Rosetta-gami B (DE3)
# Details: thermal shift, truncated human WT STING 0.1 mg/ml, 150 μM CDN
# Source text: Both WT and AQ human STING (G230A-R293Q) cDNA were amplified by the use of PCR (Phusion® High-Fidelity DNA Polymerase, cat. #M0530S, NEB, Ipswich, USA) using oligonucleotides hSTING140-BamH-For ([…]) (SEQ ID NO:5) and hSTING379-Not-Rev3 ([…]) (SEQ ID NO:6) from pUNO1-hSTING-WT (cat. #puno1-hstingwt, InvivoGen, San Diego, USA) and pUNO1-hSTING-HAQ plasmids (punol-hsting-haq, InvivoGen, San Diego, USA). Purified PCR products were cleaved with restriction enzymes BamHI (cat. #R0136S, NEB, Ipswich, USA) and Notl (cat. #R0189S, NEB, Ipswich, USA) and cloned into the pSUMO vector linearized with the identical enzymes. Plasmid pSUMO was created by introducing 8-His-SUMO sequence between Ndel and BamHI sites of pHis-parallel2 plasmid (Clontech, Moutain View, USA). pSUMO-STING WT or pSUMO-STING AQ plasmids thus encoded truncated human WT STING or AQ STING (amino acid residues 140-343) with N-terminal 8xHis and SUMO tag.
# The recombinant WT STING and AQ STING proteins were overexpressed in Rosetta-gami B (DE3) competent cells (cat. #71136-3, Merck Millipore, Billerica, USA). Bacterial pellets were re-suspended in ice-cold lysis buffer containing 50 mmol·l^−1 TrisCl (cat. #T1503, Sigma Aldrich, Czech Republic) pH 8.0, 300 mmol·l^−1 NaCl, 3 mmol·l^−1 β-mercaptoethanol (cat. #M6250, Sigma Aldrich, Czech Republic), 10% glycerol (cat. #G5516, Sigma Aldrich, Czech Republic) and 20 mmol·l^−1 imidazole (cat. #15513, Sigma Aldrich, Czech Republic) using Dounce homogenizer. DNase I (cat. #D5025, Sigma Aldrich, Czech Republic) and RNase A (cat. #R6513, Sigma Aldrich, Czech Republic) were added (final concentration 50 μg/ml) together with MgCl2 (final concentration 5 mmol·l^−1) to the homogenate and bacteria were lysed using French Press G-M™ High-Pressure Cell Press Homogenizer (1500 psi, 3 cycles). Lysate was spun 30,000 g for 20 minutes and supernatant was gently stirred with Ni-NTA resin (cat. #745400.25 Macherey-Nagel, Duren, Germany) for 30 minutes. The resin was poured into a chromatography column, washed with 50 ml buffer A (50 mmol·l^−1 TrisCl (pH 8.0), 800 mmol·l^−1 NaCl, 3 mmol·l^−1 (3-mercaptol; 10% glycerol; 20 mmol·l^−1 imidazole) and 8-His-SUMO tagged STING proteins were eluted with 15 ml buffer A containing 300 mmol·l^−1 imidazole. The eluted proteins were cleaved with recombinant SUMO protease (80 μg/ml of protein solution, cat. #12588018, ThermoFisher, Waltham, USA). The proteins were further purified by size exclusion chromatography using HiLoad 16/60 Superdex 75 (cat. #28989333, GE Healthcare Bio-Sciences, Pittsburgh, USA) in 50 mmol·l^−1 Tris Cl buffer pH 7.4 containing 150 mmol·l^−1 NaCl, and 10% glycerol. Proteins were concentrated with Amicon® Ultra-15 10 K device (cat. #UFC901008, Merck Millipore, Billerica, USA) and flash frozen in liquid N2.
# WT and AQ allelic forms of STING protein were diluted to the final concentration 0.1 mg/ml in 100 mmol·l^−1 TrisCl buffer pH 7.4 containing, 150 mmol·l^−1 NaCl, 1:500 SYPRO Orange (cat. #S6650, ThermoFisher, Waltham, USA) and 150 μM CDN or water. 20 μL solutions of the reaction mixtures were pipetted in triplicates into 96 well optical reaction plates and thermal denaturation of samples were performed on real time PCR cycler (LightCycler® 480 Instrument II—Roche, Basel, Switzerland). The first derivative of the thermal denaturation curves was performed to calculate denaturing temperatures of STING—CDN complexes and STING apoproteins. The thermal shift for each CDN was calculated by subtracting the average denaturing temperature of STING apoprotein from the average denaturing temperature of STING CDN complex.
# WT STING, sequence (Q86WV6 140-343 H232R): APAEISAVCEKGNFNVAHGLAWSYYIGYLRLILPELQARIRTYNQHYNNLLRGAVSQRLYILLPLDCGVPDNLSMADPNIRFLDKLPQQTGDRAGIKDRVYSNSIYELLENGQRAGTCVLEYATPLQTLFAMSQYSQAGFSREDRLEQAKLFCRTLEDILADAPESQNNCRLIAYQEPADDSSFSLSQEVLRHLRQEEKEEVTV
row,Compound,DSF ΔTm WT STING [°C]
1,"Nc1ncnc2c1ncn2[C@@H]1CO[C@@H]2COP(=O)(S)O[C@H]3[C@@H](F)[C@H](n4cnc5c(N)ncnc54)O[C@@H]3COP(=O)(S)O[C@@H]12 (stereo partly drawn) [Compound 55, (1S,6R,8R,9R,10R,15R,18R)-8,18-bis(6-amino-9H-purin-9-yl)-9-fluoro-3,12-disulfanyl-2,4,7,11,13,16-hexaoxa-3λ^5,12λ^5-diphosphatricyclo[13.3.0.0^6,10]octadecane-3,12-dione]",11.0

# Same assay, conditions: thermal shift, truncated human WT STING 0.1 mg/ml, 150 μM CDN; read-out: DSF ΔTm WT STING
row,Compound,ΔTm at 150 µM [°C]
1,"Nc1nc2c(ncn2[C@@H]2O[C@@H]3COP(=O)(O)O[C@H]4[C@H](n5cnc6c(N)ncnc65)CO[C@@H]4COP(=O)(O)O[C@H]3[C@H]2F)c(=O)[nH]1 [Compound 24, (1S,6R,8R,9R,10R,15R,18R)-8-(2-amino-6-oxo-6,9-dihydro-1H-purin-9-yl)-18-(6-amino-9H-purin-9-yl)-9-fluoro-3,12-dihydroxy-2,4,7,11,13,16-hexaoxa-3λ^5,12λ^5-diphosphatricyclo[13.3.0.0^6,10]octadecane-3,12-dione]",8.5
2,"Nc1ncnc2c1ncn2[C@@H]1CO[C@@H]2COP(=O)(O)O[C@H]3[C@@H](F)[C@H](n4cnc5c(N)ncnc54)O[C@@H]3COP(=O)(O)O[C@@H]12 [Compound 28, (1S,6R,8R,9R,10R,15R,18R)-8,18-bis(6-amino-9H-purin-9-yl)-9-fluoro-3,12-dihydroxy-2,4,7,11,13,16-hexaoxa-3λ^5,12λ^5-diphosphatricyclo[13.3.0.0^6,10]octadecane-3,12-dione]",5.6
3,"Nc1ncnc2c1ncn2[C@@H]1CC[C@@H]2COP(=O)(O)O[C@H]3[C@@H](F)[C@H](n4cnc5c(N)ncnc54)O[C@@H]3COP(=O)(O)O[C@H]21 [Compound 34, (1R,6R,8R,9R,10R,15R,18R)-8,18-bis(6-amino-9H-purin-9-yl)-9-fluoro-3,12-dihydroxy-2,4,7,11,13-pentaoxa-3λ^5,12λ^5-diphosphatricyclo[13.3.0.0^6,10]octadecane-3,12-dione]",1.6
4,"Nc1ncnc2c1ncn2[C@@H]1CO[C@@H]2COP(=O)(O)O[C@H]3C[C@H](n4cnc5c(N)ncnc54)O[C@@H]3COP(=O)(O)O[C@@H]12 [Compound 50, (1S,6R,8R,10S,15R,18R)-8,18-bis(6-amino-9H-purin-9-yl)-3,12-dihydroxy-2,4,7,11,13,16-hexaoxa-3λ^5,12λ^5-diphosphatricyclo[13.3.0.0^6,10]octadecane-3,12-dione]",1.8
5,"Nc1nc2c(ncn2[C@@H]2CO[C@@H]3COP(=O)(O)O[C@H]4[C@@H](F)[C@H](n5cnc6c(N)ncnc65)O[C@@H]4COP(=O)(O)O[C@@H]23)c(=O)[nH]1 [Compound 51, (1S,6R,8R,9R,10R,15R,18R)-18-(2-amino-6-oxo-6,9-dihydro-1H-purin-9-yl)-8-(6-amino-9H-purin-9-yl)-9-fluoro-3,12-dihydroxy-2,4,7,11,13,16-hexaoxa-3λ^5,12λ^5-diphosphatricyclo[13.3.0.0^6,10]octadecane-3,12-dione]",6.8
6,"Nc1nc2c(ncn2[C@@H]2CO[C@@H]3COP(=O)(O)O[C@H]4[C@H](n5cnc6c(N)ncnc65)CO[C@@H]4COP(=O)(O)O[C@@H]23)c(=O)[nH]1 [Compound 52, (1S,6R,9R,10S,15R,18R)-9-(2-amino-6-oxo-6,9-dihydro-1H-purin-9-yl)-18-(6-amino-9H-purin-9-yl)-3,12-dihydroxy-2,4,7,11,13,16-hexaoxa-3λ^5,12λ^5-diphosphatricyclo[13.3.0.0^6,10]octadecane-3,12-dione]",2.4
7,"Nc1nc2c(ncn2[C@@H]2CO[C@@H]3COP(=O)(O)O[C@H]4C[C@H](n5cnc6c(N)ncnc65)O[C@@H]4COP(=O)(O)O[C@@H]23)c(=O)[nH]1 [Compound 53, (1S,6R,8R,10S,15R,18R)-18-(2-amino-6-oxo-6,9-dihydro-1H-purin-9-yl)-8-(6-amino-9H-purin-9-yl)-3,12-dihydroxy-2,4,7,11,13,16-hexaoxa-3λ^5,12λ^5-diphosphatricyclo[13.3.0.0^6,10]octadecane-3,12-dione]",2.9
8,"Nc1ncnc2c1ncn2[C@@H]1CO[C@@H]2COP(=O)(S)O[C@H]3[C@@H](F)[C@H](n4cnc5c(N)ncnc54)O[C@@H]3COP(=O)(S)O[C@@H]12 (stereo partly drawn) [Compound 54, (1S,6R,8R,9R,10R,15R,18R)-8,18-bis(6-amino-9H-purin-9-yl)-9-fluoro-3,12-disulfanyl-2,4,7,11,13,16-hexaoxa-3λ^5,12λ^5-diphosphatricyclo[13.3.0.0^6,10]octadecane-3,12-dione]",8.5
